Broadly, the IC50 is the concentration at which inhibition is half-maximal. Read a low IC50 as greater potency.

SMILES strings stand for the structures. A value given as a limit tells only on which side of the number the result lay.

The test system of one series is MDA-MB-231 TNBC cells. Description: SRB cell proliferation assay, MDA-MB-231. Type of series: cell-based, human. Particulars: for IC50: 72 h, SRB assay; for Therapeutic Index: ratio of IC50 values between MCF10A and MDA-MB-231 cells. The protocol: (§1) Human breast epithelial cell line (MCF10A) and human TNBC cell lines (MDA-MB-468, MDA-MB-231, Hs578T, and HCC38 cells) were provided by the American Type Culture Collection (Manassas, VA, USA). MCF10A cells were cultured in Dulbecco’s Modified Eagle’s Medium/Nutrient Mixture F-12 containing 5% donor horse serum, 100 ng/mL cholera toxin, 10 µg/mL human insulin, 20 ng/mL epidermal growth factor, 0.5 µg/mL hydrocortisone, and penicillin-streptomycin (sodium penicillin G: 100 units/mL; streptomycin: 100 μg/mL). The TNBC cells were cultured in medium [Dulbecco’s Modified Eagle’s Medium for MDA-MB-468, MDA-MB-231, and Hs578T cells; Roswell Park Memorial Institute 1640 medium for HCC38 cells] supplemented with penicillin-streptomycin and 10% fetal bovine serum at 37 °C in a humidified incubator with 5% carbon dioxide. MCF10A cells were cultured in DMEM/F12 containing 5% donor horse serum, 100 ng/mL cholera toxin, 10 µg/mL human insulin, 20 ng/mL epidermal growth factor, 0.5 µg/mL hydrocortisone and penicillin-streptomycin. All reagents used for cell culture, including culture medium, fetal bovine serum, trypsin-EDTA solution (1×), and penicillin-streptomycin solution (100×), were purchased from Gibco (Grand Island, NE, USA). Laemmli sample buffer (2×) and 2-mercaptoethanol were purchased from Bio-Rad Laboratories, Inc. (Hercules, CA, USA). EPZ-5676 was purchased from Cayman Chemical (Ann Arbor, MI, USA). Dimethyl sulfoxide (DMSO), bicinchoninic acid, copper (II) sulfate solution, bovine serum albumin (BSA), trichloroacetic acid, sulforhodamine B (SRB), and paclitaxel were purchased from Sigma–Aldrich (St. Louis, MO, USA).
(§2) Cell proliferation was evaluated using the SRB assay. Briefly, cells were seeded in 96-well plates and incubated for 30 min (for 0-day controls) or treated with test compounds for the times indicated. After incubation, the cells were fixed, dried, and stained with 0.4% (w/v) SRB in 1% (v/v) acetic acid solution. Unbound dye was removed by washing, and stained cells were dissolved in 10 mM Tris (pH 10.0). Cell proliferation was then determined by measuring the absorbance at 515 nm.
For orientation: In SRB staining, fixed cells bind dye roughly in proportion to their protein.

Series [1] has as its system MCF10A normal breast epithelial cells. Description: SRB cell proliferation assay, MCF10A. Particulars: 72 h. It is filed as cell-based, human. The protocol:
as §1, §2

In the next series the target is T1, DOT1L (Homo sapiens, UniProt Q8TEK3).
T1 construct: purchased BPS Bioscience 52202
T1 sequence (Q8TEK3 whole entry): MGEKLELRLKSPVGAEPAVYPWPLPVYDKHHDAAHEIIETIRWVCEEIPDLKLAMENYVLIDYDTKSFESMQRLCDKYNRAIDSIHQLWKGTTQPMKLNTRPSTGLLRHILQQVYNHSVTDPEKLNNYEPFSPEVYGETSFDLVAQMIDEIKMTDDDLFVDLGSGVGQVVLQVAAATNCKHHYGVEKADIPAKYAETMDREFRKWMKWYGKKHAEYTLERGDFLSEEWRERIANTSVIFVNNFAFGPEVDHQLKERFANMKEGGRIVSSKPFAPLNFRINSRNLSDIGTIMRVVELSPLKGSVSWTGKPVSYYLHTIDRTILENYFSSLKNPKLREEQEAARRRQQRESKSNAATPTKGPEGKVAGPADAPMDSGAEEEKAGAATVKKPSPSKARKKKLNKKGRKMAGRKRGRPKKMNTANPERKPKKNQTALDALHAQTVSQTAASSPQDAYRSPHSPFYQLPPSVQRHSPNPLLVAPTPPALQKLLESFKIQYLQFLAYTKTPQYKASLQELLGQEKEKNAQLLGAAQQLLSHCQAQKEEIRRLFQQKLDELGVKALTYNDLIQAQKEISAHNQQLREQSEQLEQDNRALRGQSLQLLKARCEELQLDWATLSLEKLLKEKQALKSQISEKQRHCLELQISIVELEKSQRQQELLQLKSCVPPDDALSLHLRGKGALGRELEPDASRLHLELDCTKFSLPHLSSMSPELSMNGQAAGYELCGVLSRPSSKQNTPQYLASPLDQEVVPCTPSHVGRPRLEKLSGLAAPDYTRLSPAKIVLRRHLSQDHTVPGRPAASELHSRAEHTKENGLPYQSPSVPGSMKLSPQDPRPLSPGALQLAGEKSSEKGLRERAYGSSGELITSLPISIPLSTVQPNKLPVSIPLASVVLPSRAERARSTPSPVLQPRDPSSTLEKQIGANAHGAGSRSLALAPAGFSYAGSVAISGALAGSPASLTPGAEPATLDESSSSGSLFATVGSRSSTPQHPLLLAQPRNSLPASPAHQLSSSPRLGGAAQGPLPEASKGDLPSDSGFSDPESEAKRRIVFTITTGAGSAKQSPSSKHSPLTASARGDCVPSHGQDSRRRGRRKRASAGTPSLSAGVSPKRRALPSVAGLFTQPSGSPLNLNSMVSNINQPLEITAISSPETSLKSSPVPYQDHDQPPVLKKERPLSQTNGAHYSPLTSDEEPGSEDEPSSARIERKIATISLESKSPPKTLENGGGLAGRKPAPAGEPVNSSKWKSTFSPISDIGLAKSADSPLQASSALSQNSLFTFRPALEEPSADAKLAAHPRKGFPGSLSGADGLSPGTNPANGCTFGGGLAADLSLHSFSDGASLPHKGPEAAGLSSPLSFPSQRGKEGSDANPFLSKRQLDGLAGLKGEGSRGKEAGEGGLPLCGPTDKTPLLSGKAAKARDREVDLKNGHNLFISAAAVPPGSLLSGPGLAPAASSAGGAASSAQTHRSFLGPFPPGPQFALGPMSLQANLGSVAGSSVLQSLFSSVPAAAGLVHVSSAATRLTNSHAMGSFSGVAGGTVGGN
Description: DOT1L enzyme activity assay (cell-free). Particulars: 500 nM, 2 h, DOT1L 500 ng/well. It is filed as biochemical. The protocol: DOT1L enzyme activity was measured using 5 μM S-adenosyl methionine (SAM) as the methyl group donor, synthesized DOT1L substrate as the substrate, and 25 ng/μL DOT1L enzymes from BPS Bioscience (Cat. No. 52202; San Diego, CA, USA) according to the manufacturer’s instructions.

In series [2] the test system is MDA-MB-231/Luc cells-implanted orthotopic mouse model. Briefly: MDA-MB-231/Luc-implanted orthotopic mouse tumor model. Type of series: in vivo. The conditions noted are these: 30 mg/kg i.p., three times per week for 38 days. The protocol: All animal experiments were conducted following the guidelines approved by the Seoul National University Institutional Animal Care and Use Committee (IACUC; permission number: SNU-180430-4-1). Female nude mice (BALB/c-nu), 4 weeks old, were purchased from Central Laboratory Animal, Inc. (Seoul, Korea) and housed under pathogen-free conditions with a 12 h light-dark schedule. Luciferase expressing MDA-MB-231 cells were inoculated orthotopically into the fourth fat pad of mice (1 × 10^7 cells in 100 μL of 50:50 PBS/Matrigel) using a 29-gauge needle. Two weeks after implantation, mice were randomized into vehicle control and treatment groups of six animals per group and were administered with vehicle (EtOH/Cremophor/Normal saline = 5:5:90), 9l (10 or 30 mg/kg body weight), EPZ-5676 (30 mg/kg body weight), or paclitaxel (5 mg/kg body weight, Sigma-Aldrich) as a positive reference control. Compounds were administered intraperitoneally three times per week for 38 days. An additional week later, anesthetized mice were positioned in IVIS (PerkinElmer, Waltham, MA, USA) and were imaged 15 min after injection of 150 mg/kg D-luciferin (Gold Biotechnology, St. Louis, MO, USA) resuspended in DPBS (w/o calcium or magnesium). Mice were euthanized and primary tumors and lungs were excised, weighed, and frozen for further biochemical analysis. The length (L), width (W), and height (H) of the tumors were also measured using a digital slide caliper (Mitutoyo, Kawasaki, Japan) once a week, and tumor volumes (mm^3) were estimated by the formula LWH/2. Toxicity was evaluated based on body weight loss.
A portion of the frozen tumors excised from nude mice on the termination day of the experiment was homogenized using a hand-held homogenizer in complete lysis buffer (Active Motif, Carlsbad, CA, USA). Aliquots were stored at −80 °C, and the levels of protein expression in the tumor lysates were determined. The protein concentrations in the tumor lysates were measured using the Bradford assay.

Series [3] in a line: Molecular stability in dichloromethane (TLC analysis). The conditions noted are these: room temperature, 48 h. It is filed as physicochemical. The protocol:
Figure S1. Thin layer chromatography analysis
Se-S bond analog (Figure 2, compound 9) was dissolved in dichloromethane at room
temperature. After 48 h, thin layer chromatography (TLC) analysis of the compound
9 was performed. (P : Compound 9, C : Co-spot, S : Diphenyl disulfide, SPA :
Compound 5b, eluent: [Hexane:EtOAc = 1:1] ).
(1 picture or pasted object on this page, not shown here)

In the case of `O=C(NCC[Se]Sc1ccccc1)/C(Cc1ccc(Cl)cc1)=N/O` [9f, (E)-3-(4-Chlorophenyl)-2-(hydroxyimino)-N-(2-((phenylthio)selanyl)ethyl)propanamide], the half-maximal inhibitory concentration (IC50) amounted to 470 nM in the series on MDA-MB-231 TNBC cells (Homo sapiens, MDA-MB-231) and 27.1 µM in series [1] (Homo sapiens, MCF-10A). Besides, in the series with MDA-MB-231 TNBC cells, the “Therapeutic Index” value worked out at 57.60.
Regarding `O=C(NCC[Se]Sc1ccccc1)/C(Cc1ccc(OCc2ccccc2)cc1)=N/O` [9j, (E)-3-(4-(Benzyloxy)phenyl)-2-(hydroxyimino)-N-(2-((phenylthio)selanyl)ethyl)propanamide], the IC50 worked out at 180 nM with MDA-MB-231 TNBC cells (Homo sapiens, MDA-MB-231) and 19.5 µM in series [1] (Homo sapiens, MCF-10A). The “Therapeutic Index” value with MDA-MB-231 TNBC cells was found to be 108.22.
`O=C(NCC[Se]Sc1ccccc1)/C(Cc1ccc(O)c(Br)c1)=N/O` [9a, (E)-3-(3-Bromo-4-hydroxyphenyl)-2-(hydroxyimino)-N-(2-((phenylthio)selanyl)ethyl)propanamide]: the “Inhibition of DOT1L enzyme activity” value at DOT1L is on record as “significant inhibitory effects”. In addition, the 50% inhibitory concentration (IC50) in the series with MDA-MB-231 TNBC cells (Homo sapiens, MDA-MB-231) amounted to 210 nM; in series [1] (Homo sapiens, MCF-10A), 17.2 µM. Also, the “Therapeutic Index” value in the series with MDA-MB-231 TNBC cells was found to be 82.10.
With `CC(C)N(C[C@H]1O[C@@H](n2cnc3c(N)ncnc32)[C@H](O)[C@@H]1O)[C@H]1C[C@@H](CCc2nc3cc(C(C)(C)C)ccc3[nH]2)C1` [EPZ-5676, reference compound], the IC50 was above 50000 nM in the series on MDA-MB-231 TNBC cells (Homo sapiens, MDA-MB-231) and above 50 µM in series [1] (Homo sapiens, MCF-10A). Also, the “inhibition of proliferation of TNBC cells” value with MDA-MB-231 TNBC cells (at 50 μM) is “not able to inhibit the proliferation”. For the same molecule, in series [2], the “effect on tumor growth” value was “did not affect tumor growth”.
With `O=C(NCC[Se]Sc1ccccc1)/C(Cc1ccccc1)=N/O` [9b, (E)-2-(Hydroxyimino)-3-phenyl-N-(2-((phenylthio)selanyl)ethyl)propanamide], the “Inhibition of DOT1L enzyme activity” value at DOT1L is reported as “significant inhibitory effects”. Moreover, the IC50 amounted to 250 nM in the series on MDA-MB-231 TNBC cells (Homo sapiens, MDA-MB-231) and 21.5 µM in series [1] (Homo sapiens, MCF-10A). For the same molecule, the “Therapeutic Index” value with MDA-MB-231 TNBC cells worked out at 86.08.
As to `O=C(NCC[Se]Sc1ccccc1)/C(Cc1ccc(O)c(F)c1)=N/O` [9n, (E)-3-(3-Fluoro-4-hydroxyphenyl)-2-(hydroxyimino)-N-(2-((phenylthio)selanyl)ethyl)propanamide], the half-inhibitory concentration (IC50) with MDA-MB-231 TNBC cells (Homo sapiens, MDA-MB-231) came out at 230 nM; in series [1] (Homo sapiens, MCF-10A), 18.5 µM. The “Therapeutic Index” value in the series with MDA-MB-231 TNBC cells was 80.48.
For the molecule `O=C(NCC[Se]Sc1ccccc1)/C(Cc1ccc(O)c(Cl)c1)=N/O` [9m, (E)-3-(3-Chloro-4-hydroxyphenyl)-2-(hydroxyimino)-N-(2-((phenylthio)selanyl)ethyl)propanamide], the IC50 was determined as 250 nM in the series with MDA-MB-231 TNBC cells (Homo sapiens, MDA-MB-231) and 17 µM in series [1] (Homo sapiens, MCF-10A). Besides, in the series on MDA-MB-231 TNBC cells, the “Therapeutic Index” value turned out to be 68.08.
In the same order, the values of `CC(=O)O[C@H]1C(=O)[C@@]2(C)[C@H]([C@H](OC(=O)c3ccccc3)[C@]3(O)C[C@H](OC(=O)[C@H](O)[C@@H](NC(=O)c4ccccc4)c4ccccc4)C(C)=C1C3(C)C)[C@]1(OC(C)=O)CO[C@@H]1C[C@@H]2O` [Paclitaxel, reference compound] are 10 nM, 0.198 µM and 19.80.
For `O=C(NCC[Se]Sc1ccccc1)/C(Cc1ccc(F)c(F)c1)=N/O` [9e, (E)-3-(3,4-Difluorophenyl)-2-(hydroxyimino)-N-(2-((phenylthio)selanyl)ethyl)propanamide], in that order: 430 nM, 23.3 µM and 54.23.
Turning to `CC(C)(C)c1ccc(CC(=NO)C(=O)NCCSSc2ccccc2)cc1` [PsA-3091, reference compound], in the series on MDA-MB-231 TNBC cells, the IC50 stood at 1980 nM and the “Therapeutic Index” value amounted to 68.99. In series [1], this molecule returned a half-inhibitory concentration (IC50) of 137 µM.
On to `O=C(NCC[Se]Sc1ccccc1)/C(Cc1ccc(Br)cc1)=N/O` [9h, (E)-3-(4-Bromophenyl)-2-(hydroxyimino)-N-(2-((phenylthio)selanyl)ethyl)propanamide], for which the half-inhibitory concentration (IC50) with MDA-MB-231 TNBC cells (Homo sapiens, MDA-MB-231) amounted to 400 nM; in series [1] (Homo sapiens, MCF-10A), 29.1 µM. Moreover, the “Therapeutic Index” value in the series with MDA-MB-231 TNBC cells worked out at 72.85.
Regarding `O=C(NCC[Se]Sc1ccccc1)/C(Cc1ccc([N+](=O)[O-])cc1)=N/O` [9k, (E)-2-(Hydroxyimino)-3-(4-nitrophenyl)-N-(2-((phenylthio)selanyl)ethyl)propanamide], the IC50 with MDA-MB-231 TNBC cells (Homo sapiens, MDA-MB-231) came to 190 nM; in series [1] (Homo sapiens, MCF-10A), 18.2 µM. Further, in the series with MDA-MB-231 TNBC cells, the “Therapeutic Index” value turned out to be 95.53.
Turning to `O=C(NCC[Se]Sc1ccccc1)/C(Cc1ccccc1)=N/O` [compound 9], the molecular stability result in series [3] is given as “stable”.
As for `O=C(NCC[Se]Sc1ccccc1)/C(Cc1ccc(Cl)c(Cl)c1)=N/O` [9g, (E)-3-(3,4-Dichlorophenyl)-2-(hydroxyimino)-N-(2-((phenylthio)selanyl)ethyl)propanamide], the half-inhibitory concentration (IC50) in the series with MDA-MB-231 TNBC cells (Homo sapiens, MDA-MB-231) amounted to 330 nM; in series [1] (Homo sapiens, MCF-10A), 22.7 µM. Further, the “Therapeutic Index” value in the series with MDA-MB-231 TNBC cells turned out to be 68.67.
For `O=C(NCC[Se]Sc1ccccc1)/C(Cc1ccc(F)cc1)=N/O` [9d, (E)-3-(4-Fluorophenyl)-2-(hydroxyimino)-N-(2-((phenylthio)selanyl)ethyl)propanamide], in that order: 390 nM, 26 µM and 66.77.
In the same order, the values of `CCOc1ccc(C/C(=N\O)C(=O)NCC[Se]Sc2ccccc2)cc1` [9i, (E)-3-(4-Ethoxyphenyl)-2-(hydroxyimino)-N-(2-((phenylthio)selanyl)ethyl)propanamide] are 170 nM, 21 µM and 123.65.
For `O=C(NCC[Se]Sc1ccccc1)/C(Cc1ccc2ccccc2c1)=N/O` [9c, (E)-2-(Hydroxyimino)-3-(naphthalen-2-yl)-N-(2-((phenylthio)selanyl)ethyl)propanamide], in that order: 460 nM, 28.2 µM and 61.30.
Consider `O=C(NCCSSCCNC(=O)/C(Cc1ccc(O)c(Br)c1)=N/O)/C(Cc1ccc(O)c(Br)c1)=N/O` [Psammaplin A (PsA), Psammaplin A], for which the “Inhibition of DOT1L enzyme activity” value on DOT1L is “negligible DOT1L inhibition”. For the same molecule, the IC50 with MDA-MB-231 TNBC cells (Homo sapiens, MDA-MB-231) is 2820 nM; in series [1] (Homo sapiens, MCF-10A) it was 32.7 µM. Moreover, the “Therapeutic Index” value with MDA-MB-231 TNBC cells came to 11.60.
